Key:
Experiment in all cases: relative viability (nuclei count vs DMSO), 5 days (fraction); higher = more cells survive
IU1-47 + Olaparib = compound: CC1=CC(=C(N1C2=CC=C(C=C2)Cl)C)C(=O)CN3CCCCC3 [IU1-47] + O=C(c1cc(Cc2n[nH]c(=O)c3ccccc23)ccc1F)N1CCN(C(=O)C2CC2)CC1 [Olaparib] (partner 8 µM)
Outline: (§1)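 Values are medians from duplicate plates. Each reflects relative viability, defined as the nuclei count of treated wells over that of vehicle wells. Lung cancer cell lines in 1536-well plates were pin-tool dosed one day after seeding with one drug alone or with a fixed anchor-drug dose plus five library-drug doses (not always all listed) in √10 steps, then fixed, stained and imaged at 4× after 5 days.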

FG-4592 + Vorinostat = compound: Cc1nc(C(=O)NCC(=O)O)c(O)c2ccc(Oc3ccccc3)cc12 [FG-4592] + O=C(CCCCCCC(=O)Nc1ccccc1)NO [Vorinostat] (partner 1 µM)
Outline: as §1

IU1-47 + Pemetrexed = compound: CC1=CC(=C(N1C2=CC=C(C=C2)Cl)C)C(=O)CN3CCCCC3 [IU1-47] + Nc1nc2[nH]cc(CCc3ccc(C(=O)N[C@@H](CCC(=O)O)C(=O)O)cc3)c2c(=O)[nH]1 [Pemetrexed] (partner 0.2 µM)
Outline: as §1

FG-4592 + Pictilisib = compound: Cc1nc(C(=O)NCC(=O)O)c(O)c2ccc(Oc3ccccc3)cc12 [FG-4592] + CS(=O)(=O)N1CCN(Cc2cc3nc(-c4cccc5[nH]ncc45)nc(N4CCOCC4)c3s2)CC1 [Pictilisib] (partner 1 µM)
Outline: as §1

Cell Line | relative viability (IU1-47 + Olaparib; first compound 0.08 µM) | relative viability (IU1-47 + Olaparib; first compound 0.253 µM) | relative viability (IU1-47 + Olaparib; first compound 0.8 µM) | relative viability (IU1-47 + Olaparib; first compound 2.53 µM) | relative viability (IU1-47 + Olaparib; first compound 8 µM) | relative viability (FG-4592 + Vorinostat; first compound 0.08 µM) | relative viability (FG-4592 + Vorinostat; first compound 0.8 µM) | relative viability (FG-4592 + Vorinostat; first compound 2.53 µM) | relative viability (FG-4592 + Vorinostat; first compound 8 µM) | relative viability (IU1-47 + Pemetrexed; first compound 0.08 µM) | relative viability (IU1-47 + Pemetrexed; first compound 0.253 µM) | relative viability (IU1-47 + Pemetrexed; first compound 0.8 µM) | relative viability (IU1-47 + Pemetrexed; first compound 2.53 µM) | relative viability (IU1-47 + Pemetrexed; first compound 8 µM) | relative viability (FG-4592 + Pictilisib; first compound 0.08 µM) | relative viability (FG-4592 + Pictilisib; first compound 0.253 µM) | relative viability (FG-4592 + Pictilisib; first compound 0.8 µM) | relative viability (FG-4592 + Pictilisib; first compound 2.53 µM) | relative viability (FG-4592 + Pictilisib; first compound 8 µM) | relative viability (FG-4592 + Vorinostat; first compound 0.253 µM)
HCC-78 | 0.803 | 0.792 | 0.805 | 0.59 | 0.813 | 0.488 | 0.434 | 0.376 | 0.523 | 0.898 | 0.889 | 0.929 | 0.865 | 0.862 | 0.219 | 0.248 | 0.182 | 0.222 | 0.225 | 
HCC-366 | 0.511 | 0.328 | 0.423 | 0.312 | 0.292 | 0.263 | 0.185 | 0.308 | 0.33 | 0.176 | 0.157 | 0.192 | 0.211 | 0.19 | 0.0934 | 0.104 | 0.23 | 0.151 | 0.113 | 0.269
HCC-827 | 0.617 | 0.694 | 0.631 | 0.683 | 0.648 | 0.85 | 0.927 | 0.842 | 0.81 | 0.26 | 0.282 | 0.275 | 0.291 | 0.26 | 1.05 | 1.04 | 1.07 | 0.875 | 0.834 | 0.823
HOP-62 | 0.428 | 0.622 | 0.404 | 0.554 | 0.604 | 0.61 | 0.451 | 0.486 | 0.816 | 0.398 | 0.454 | 0.373 | 0.223 | 0.365 | 0.831 | 0.55 | 0.455 | 0.651 | 0.657 | 0.686

Reference: the supplement of paper PMC10307832
